Source: patent publication US4731360A, “Acylcarnitines as absorption-enhancing agents for drug delivery through mucous membranes of the nasal, buccal, sublingual and vaginal compartments” (Merck & Co., Inc., priority 1985, dated 1988)

What was measured:
[1] = Percent bioavailability of α-methyldopa after nasal, oral (buccal) or vaginal administration to rats, with or without palmitoylcarnitine chloride; blood levels by HPLC, against intravenous administration; format: in vivo; settings: aqueous formulation, mean ± SD, n = 3, vs intravenous; for Percent α-methyldopa Bioavailability in the Presence (+) of Palmitoylcarnitine: with 1.0 mg palmitoylcarnitine chloride; for Percent α-methyldopa Bioavailability in the Absence (-) of Palmitoylcarnitine: without palmitoylcarnitine
Procedure: Effect of palmitoylcarnitine chloride on the nasal, buccal and vaginal absorption of α-methyldopa (amino acid, antihypertensive). Experiments were performed with rats wherein each animal received an aqueous formulation administered to the nasal, oral or vaginal cavities. The formulations contained the indicated amount of α-methyldopa in the presence or absence of 1.0 mg palmitoylcarnitine chloride. Procedures were tested to eliminate the possibility of cross-contamination between the nasal and oral cavities. Blood levels of α-methyldopa were determined by high performance liquid chromatography and the amount of drug absorbed (percent bioavailability) calculated against intravenous α-methyldopa administration. | Values represent the mean ± SD for n = 3 determinations.

[2] = test system: mucous membranes of the nasal, buccal, sublingual and vaginal compartments; assay: Promotion of drug absorption through mucous membranes; settings: without acyl ester
mucosal cells = settings: studies of surfactants; cited from earlier work
[3] = nasal cavity, α-methyldopa 0.5 mg
[4] = oral cavity (buccal), α-methyldopa 2.5 mg
[5] = vaginal cavity, α-methyldopa 2.5 mg

Question: What does the source list for `C[C@](N)(Cc1ccc(O)c(O)c1)C(=O)O` [α-methyldopa]?
Answer: Percent α-methyldopa Bioavailability in the Presence (+) of Palmitoylcarnitine [1, 3]: 52 ± 16.2%; Percent α-methyldopa Bioavailability in the Absence (-) of Palmitoylcarnitine [1, 3]: 7 ± 1.1%; Percent α-methyldopa Bioavailability in the Presence (+) of Palmitoylcarnitine [1, 4]: 10 ± 6.0%; Percent α-methyldopa Bioavailability in the Absence (-) of Palmitoylcarnitine [1, 4]: 3 ± 0.7%; Percent α-methyldopa Bioavailability in the Presence (+) of Palmitoylcarnitine [1, 5]: 100 ± 55.0%; Percent α-methyldopa Bioavailability in the Absence (-) of Palmitoylcarnitine [1, 5]: 2 ± 1.0%

Question: For `C[N+](C)(C)CC(O)CC(=O)[O-]` (centres unmarked) [carnitine], which “absorption promoting effect of carnitine alone” value [2] is on record?
Answer: no effect

Question: With `CCCCCCCCCCCCOS(=O)(=O)[O-].[Na+]` [sodium lauryl sulfate] as the molecule, how does the “cellular damage associated with surfactant activity” value (mucosal cells) read?
Answer: generally associated with some degree of cellular damage
